We go through 15 compounds from patent US10004732B2 (Novartis AG, priority 2014, dated 2018).

The structures appear in SMILES notation.

The target of one series is PI 3-kinase alpha (Homo sapiens, UniProt P42336). Briefly: Kinase Glo Luminescent Kinase Assay (Kglo), assay A. In kind it is biochemical. The settings on record: read-out: Assay A PI3Kα IC50.
For another series, the target named is PI 3-kinase beta (Homo sapiens, UniProt P42338). Briefly: Kinase Glo Luminescent Kinase Assay (Kglo), assay B. In kind it is biochemical. The settings on record: read-out: Assay B PI3Kβ IC50.
For another series, the target named is Vps34 (Homo sapiens, UniProt Q8NEB9). Briefly: Kinase Glo Luminescent Kinase Assay (Kglo), assay C. In kind it is biochemical. The settings on record: read-out: Assay C VPS34 IC50.
The target of the next series is PI 4-kinase beta (Homo sapiens, UniProt Q9UBF8). As to the kind of experiment: Kinase Glo Luminescent Kinase Assay (Kglo), assay D. Type of series: biochemical. The note with it: read-out: Assay D PI4Kβ IC50. (Kinase-Glo measures the ATP left after a reaction by luminescence.)
The target in series [1] is T1, PI 3-kinase gamma (Homo sapiens, UniProt P48736). As to the kind of experiment: TR-FRET Adapta assay, assay E. Type of series: biochemical. The settings on record: read-out: Assay E PI3Kγ IC50. Background: In TR-FRET formats the signal depends on donor and acceptor labels being close together.
Another series concerns the target mTOR (Homo sapiens, UniProt P42345). As to the kind of experiment: Lanthascreen kinase binding assay, assay G. The note with it: read-out: Assay G mTOR IC50.
Series [2] addresses T1, PI 3-kinase gamma. Briefly: Cellular U937 AKT assay K1 (MSD). Type of series: cell-based. The settings on record: U937 cells, K1 format; read-out: Assay K1 PI3Kγ IC50.
For series [3], the system named is IL-8-induced neutrophil shape change in human whole blood. Briefly: Whole blood neutrophil shape change assay (L). Type of series: cell-based. The settings on record: Homo sapiens, Neutrophil, IL-8, human whole blood, read-out: Assay L WBSC IC50.
Another series concerns the target PI 3-kinase delta (Homo sapiens, UniProt O00329). Briefly: TR-FRET Adapta assay, assay F. The note with it: read-out: Assay F PI3Kδ IC50.
Series [4] in a line: Microsomal clearance assay (M). The note with it: intrinsic clearance in rat liver microsomes.
Description: The experiments were performed in 96-well glass plates at 37° C. on an automated Tecan EVO platform. Test compounds at a concentration of 10 mM in pure DMSO were diluted 1:1000 in water to 10 μM. […] Reactions were initiated by the addition of 150 μL of a cofactor solution containing 2 mM NADPH.

The IC50 is the concentration that gives 50% inhibition.

T1 sequence (P48736 whole entry): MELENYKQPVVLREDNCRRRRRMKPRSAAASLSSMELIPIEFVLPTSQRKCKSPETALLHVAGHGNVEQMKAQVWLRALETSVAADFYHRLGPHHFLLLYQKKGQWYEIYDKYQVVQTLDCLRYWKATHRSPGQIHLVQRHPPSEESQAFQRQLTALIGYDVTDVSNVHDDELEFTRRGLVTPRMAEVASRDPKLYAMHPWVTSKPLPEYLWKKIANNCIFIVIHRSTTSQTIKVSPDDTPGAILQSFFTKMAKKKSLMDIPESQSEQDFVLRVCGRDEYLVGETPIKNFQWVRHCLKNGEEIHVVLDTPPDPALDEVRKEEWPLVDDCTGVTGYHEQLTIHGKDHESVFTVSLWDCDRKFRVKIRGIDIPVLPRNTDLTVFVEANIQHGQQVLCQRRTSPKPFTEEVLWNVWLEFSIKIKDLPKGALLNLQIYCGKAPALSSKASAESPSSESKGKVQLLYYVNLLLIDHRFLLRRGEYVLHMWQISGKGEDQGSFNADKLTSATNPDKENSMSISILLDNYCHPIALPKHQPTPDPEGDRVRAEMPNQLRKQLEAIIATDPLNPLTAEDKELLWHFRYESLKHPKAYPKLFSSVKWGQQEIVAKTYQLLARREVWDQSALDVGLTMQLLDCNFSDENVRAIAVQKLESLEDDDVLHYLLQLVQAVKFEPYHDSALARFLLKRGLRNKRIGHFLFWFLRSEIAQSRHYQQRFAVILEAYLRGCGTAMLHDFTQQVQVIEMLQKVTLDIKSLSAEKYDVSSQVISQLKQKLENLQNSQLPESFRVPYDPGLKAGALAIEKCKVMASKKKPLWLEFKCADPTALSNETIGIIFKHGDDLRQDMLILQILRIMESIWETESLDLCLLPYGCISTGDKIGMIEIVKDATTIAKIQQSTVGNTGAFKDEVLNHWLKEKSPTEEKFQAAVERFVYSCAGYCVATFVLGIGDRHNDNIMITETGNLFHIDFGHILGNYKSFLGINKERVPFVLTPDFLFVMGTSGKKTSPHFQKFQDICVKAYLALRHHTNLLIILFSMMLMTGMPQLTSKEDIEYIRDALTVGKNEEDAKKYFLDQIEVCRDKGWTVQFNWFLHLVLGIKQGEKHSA
Sequence of PI 4-kinase beta (Q9UBF8 whole entry): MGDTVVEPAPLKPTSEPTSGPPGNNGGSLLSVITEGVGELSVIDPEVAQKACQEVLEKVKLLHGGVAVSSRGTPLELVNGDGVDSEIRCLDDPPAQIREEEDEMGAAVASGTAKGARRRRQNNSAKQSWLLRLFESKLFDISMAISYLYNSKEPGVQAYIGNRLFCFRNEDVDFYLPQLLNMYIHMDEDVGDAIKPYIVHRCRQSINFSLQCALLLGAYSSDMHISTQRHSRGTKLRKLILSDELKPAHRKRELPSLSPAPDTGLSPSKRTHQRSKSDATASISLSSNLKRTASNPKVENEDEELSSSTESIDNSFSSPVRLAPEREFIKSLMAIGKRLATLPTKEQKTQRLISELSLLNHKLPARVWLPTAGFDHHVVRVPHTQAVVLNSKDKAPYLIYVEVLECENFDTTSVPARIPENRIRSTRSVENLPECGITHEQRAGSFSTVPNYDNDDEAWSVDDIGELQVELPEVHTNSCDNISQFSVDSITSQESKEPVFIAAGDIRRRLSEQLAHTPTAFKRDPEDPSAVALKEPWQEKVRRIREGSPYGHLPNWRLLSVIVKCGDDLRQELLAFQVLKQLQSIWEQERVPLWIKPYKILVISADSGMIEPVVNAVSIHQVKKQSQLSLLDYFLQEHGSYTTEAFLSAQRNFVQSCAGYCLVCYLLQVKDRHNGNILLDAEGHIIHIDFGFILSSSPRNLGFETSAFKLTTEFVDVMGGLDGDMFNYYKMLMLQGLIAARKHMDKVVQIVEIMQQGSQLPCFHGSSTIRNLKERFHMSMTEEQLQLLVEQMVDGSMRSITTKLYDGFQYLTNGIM
Sequence of PI 3-kinase beta (P42338 whole entry): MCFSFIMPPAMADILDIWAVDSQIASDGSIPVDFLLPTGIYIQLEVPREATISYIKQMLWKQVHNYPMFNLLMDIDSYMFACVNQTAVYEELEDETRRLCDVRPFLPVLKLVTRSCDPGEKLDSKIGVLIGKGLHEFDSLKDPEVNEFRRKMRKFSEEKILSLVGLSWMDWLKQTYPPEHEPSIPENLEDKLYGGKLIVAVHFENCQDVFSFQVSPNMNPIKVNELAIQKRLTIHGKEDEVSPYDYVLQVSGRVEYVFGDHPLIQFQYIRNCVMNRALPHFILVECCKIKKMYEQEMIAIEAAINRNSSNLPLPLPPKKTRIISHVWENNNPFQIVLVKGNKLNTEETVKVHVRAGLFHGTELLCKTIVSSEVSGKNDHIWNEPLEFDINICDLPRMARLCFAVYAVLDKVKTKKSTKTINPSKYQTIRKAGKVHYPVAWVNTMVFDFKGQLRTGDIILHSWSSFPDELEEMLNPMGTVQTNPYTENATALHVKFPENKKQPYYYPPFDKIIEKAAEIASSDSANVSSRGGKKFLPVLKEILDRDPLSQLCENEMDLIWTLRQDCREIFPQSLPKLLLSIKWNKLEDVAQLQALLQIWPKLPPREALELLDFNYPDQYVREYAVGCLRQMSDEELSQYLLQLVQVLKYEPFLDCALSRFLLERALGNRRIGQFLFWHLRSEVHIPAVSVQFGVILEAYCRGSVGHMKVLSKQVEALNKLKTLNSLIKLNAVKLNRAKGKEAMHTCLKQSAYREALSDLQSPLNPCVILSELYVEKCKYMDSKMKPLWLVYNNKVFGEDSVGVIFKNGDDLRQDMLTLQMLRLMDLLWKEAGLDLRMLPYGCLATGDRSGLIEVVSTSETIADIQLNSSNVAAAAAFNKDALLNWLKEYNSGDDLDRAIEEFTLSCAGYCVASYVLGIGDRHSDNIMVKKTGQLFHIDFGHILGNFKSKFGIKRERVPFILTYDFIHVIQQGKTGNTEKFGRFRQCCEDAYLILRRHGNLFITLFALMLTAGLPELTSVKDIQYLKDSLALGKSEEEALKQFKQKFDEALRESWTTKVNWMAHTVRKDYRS
Sequence of PI 3-kinase beta (P27986 461-568 partner): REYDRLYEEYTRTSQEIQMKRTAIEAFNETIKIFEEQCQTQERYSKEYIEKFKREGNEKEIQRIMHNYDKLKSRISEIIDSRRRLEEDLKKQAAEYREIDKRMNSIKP
Sequence of PI 3-kinase alpha (P42336 whole entry): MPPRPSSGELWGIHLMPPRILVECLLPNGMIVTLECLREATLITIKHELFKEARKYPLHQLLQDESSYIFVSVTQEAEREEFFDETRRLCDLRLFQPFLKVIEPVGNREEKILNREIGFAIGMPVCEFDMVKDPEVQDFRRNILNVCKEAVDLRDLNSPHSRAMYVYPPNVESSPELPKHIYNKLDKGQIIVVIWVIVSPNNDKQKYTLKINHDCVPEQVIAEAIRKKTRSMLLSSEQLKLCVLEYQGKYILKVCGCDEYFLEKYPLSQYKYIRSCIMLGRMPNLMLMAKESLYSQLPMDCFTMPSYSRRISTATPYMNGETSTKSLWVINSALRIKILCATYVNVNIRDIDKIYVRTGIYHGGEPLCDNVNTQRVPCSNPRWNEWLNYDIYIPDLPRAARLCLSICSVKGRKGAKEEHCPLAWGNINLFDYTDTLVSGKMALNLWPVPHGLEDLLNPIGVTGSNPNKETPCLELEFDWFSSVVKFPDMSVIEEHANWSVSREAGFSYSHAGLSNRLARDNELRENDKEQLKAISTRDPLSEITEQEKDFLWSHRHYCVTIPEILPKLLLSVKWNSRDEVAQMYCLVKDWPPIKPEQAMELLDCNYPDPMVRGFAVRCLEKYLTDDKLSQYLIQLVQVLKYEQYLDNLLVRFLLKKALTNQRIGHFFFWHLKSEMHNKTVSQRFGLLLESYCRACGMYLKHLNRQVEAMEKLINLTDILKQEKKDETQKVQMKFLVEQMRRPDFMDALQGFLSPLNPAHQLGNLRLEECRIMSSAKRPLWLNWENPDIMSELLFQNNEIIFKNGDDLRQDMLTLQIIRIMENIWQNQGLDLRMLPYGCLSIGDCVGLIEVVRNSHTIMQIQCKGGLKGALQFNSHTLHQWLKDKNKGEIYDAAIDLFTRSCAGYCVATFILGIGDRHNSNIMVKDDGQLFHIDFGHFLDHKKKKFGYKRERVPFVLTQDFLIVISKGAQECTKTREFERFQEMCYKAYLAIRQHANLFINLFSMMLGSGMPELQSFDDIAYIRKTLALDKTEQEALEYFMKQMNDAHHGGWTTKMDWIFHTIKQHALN
Sequence of Vps34 (Q8NEB9 whole entry, species assumed): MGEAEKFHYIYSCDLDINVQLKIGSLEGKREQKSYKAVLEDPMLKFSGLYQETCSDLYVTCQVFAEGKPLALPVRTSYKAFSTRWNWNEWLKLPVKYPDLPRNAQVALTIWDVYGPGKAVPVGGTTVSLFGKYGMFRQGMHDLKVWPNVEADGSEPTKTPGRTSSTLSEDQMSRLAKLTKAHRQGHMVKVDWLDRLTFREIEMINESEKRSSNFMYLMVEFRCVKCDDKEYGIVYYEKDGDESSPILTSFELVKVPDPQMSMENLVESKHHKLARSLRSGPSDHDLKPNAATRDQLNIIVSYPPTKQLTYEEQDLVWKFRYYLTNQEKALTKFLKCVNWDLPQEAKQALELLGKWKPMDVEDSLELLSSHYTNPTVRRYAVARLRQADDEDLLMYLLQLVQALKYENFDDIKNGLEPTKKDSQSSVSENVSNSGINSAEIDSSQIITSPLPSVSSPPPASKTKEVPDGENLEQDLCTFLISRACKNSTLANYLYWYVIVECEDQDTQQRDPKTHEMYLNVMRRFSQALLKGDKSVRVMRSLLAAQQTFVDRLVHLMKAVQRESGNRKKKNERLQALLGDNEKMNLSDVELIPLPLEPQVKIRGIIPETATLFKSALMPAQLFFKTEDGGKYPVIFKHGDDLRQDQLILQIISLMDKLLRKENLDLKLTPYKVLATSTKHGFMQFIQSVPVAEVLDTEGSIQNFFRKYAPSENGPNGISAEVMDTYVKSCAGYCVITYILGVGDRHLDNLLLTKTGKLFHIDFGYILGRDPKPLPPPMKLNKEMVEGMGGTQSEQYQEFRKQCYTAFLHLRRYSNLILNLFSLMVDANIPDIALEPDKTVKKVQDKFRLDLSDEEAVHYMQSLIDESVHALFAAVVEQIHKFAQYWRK
Description for PI 3-kinase delta: TR-FRET Adapta Assay for PI 3-Kinase Gamma (E), PI 3-Kinase Delta (F)
The TR-FRET Adapta™ Universal Kinase Assay Kit was purchased from Invitrogen Corporation (Carlsbad/CA, USA) (Cat. No. PV5099).
PIK3CD substrate phosphatidylinositol (PI) was obtained from Invitrogen (vesicules consisting of 2 mM phosphatidylinositol (PI) in 50 mM HEPES pH7.5; Cat. No. PV5371). PIK3CG substrate phosphatidylinositol-4,5-bisphosphate (PIP(4,5)2 was obtained from Invitrogen (PIP2:PS large unilamellar vesicules consisting of 1 mM PIP2: 19 mM PS in 50 mM HEPES pH7.5, 3 mM MgCl2, 1 mM EGTA; Cat. No. PV5100).
Time-Resolved Fluorescence Resonance Energy Transfer (TR-FRET) is a technology based on energy transfer between two adjacent dyes, from an excited electron in one dye (the donor) to an electron of an adjacent dye (the acceptor) through resonance, then released as a photon. This energy transfer is detected by an increase in the fluorescence emission of the acceptor, and a decrease in the fluorescence emission of the donor. TR-FRET assays for protein kinases use a long-lifetime lanthanide Terbium or Europium chelates as the donor species which overcome interference from compound autofluorescence or light scatter from precipitated compounds, by introducing a delay after excitation by a flashlamp excitation source. Results are often expressed as a ratio of the intensities of the acceptor and donor fluorophores. The ratiometric nature of such a value corrects for differences in assay volumes between wells, as well as corrects for quenching effects due to colored compounds. The Adapta™ assay can be divided into two phases: a kinase reaction phase and an ADP detection phase. In the kinase reaction phase, all kinase reaction components are added to the well and the reaction is allowed to incubate for a set period of time specific for each kinase. […] In the presence of an inhibitor, the amount of ADP formed by the kinase reaction is reduced, and the resulting intact antibody-tracer interaction maintains a high TR-FRET signal.
50 nL of compound dilutions were dispensed onto white 384-well small volume polystyrene plate. Then 5 μL of either PI 3-kinase gamma or PI 3-kinase delta and lipid substrate (PI or PIP2:PS) followed by 5 μL of ATP (final assay volume 10 μL) are incubated at RT. The standard reaction buffer for the Adapta™ TR-FRET assay contained 10 mM Tris-HCl pH 7.5, 3 mM MgCl2, 50 mM NaCl, 1 mM DTT, 0.05% CHAPS 3-[(3-cholamidopropyl)dimethylammonio]-1-propanesulfonate).
Data are analyzed using Excel fit software or Graphpad Prism. IC50 values were derived by fitting a sigmoidal dose-response curve to a plot of assay readout over inhibitor concentration. All fits were performed with the program XLfit4 (ID Business Solutions, Guildford, UK). […] All fits were performed with the program XLfit4 (ID Business Solutions, Guildford, UK).
Description for mTOR: Lanthascreen™ Kinase Binding Assay for mTOR (G)
Binding of an inhibitor to the kinase competes for binding with the tracer, resulting in a loss of FRET.
50 nL of compound dilutions were dispensed onto white 384-well small volume polystyrene plate.

In the case of `Cc1ccc(-c2nc(-c3cc(S(=O)(=O)NCCC(C)(C)O)ccc3C)cnc2N)s1` [Example 119.44], the IC50 on PI 3-kinase alpha was 120 nM; at PI 3-kinase beta, 1370 nM; at Vps34, over 9100 nM; on PI 4-kinase beta, 760 nM; on PI 3-kinase gamma [1], 99 nM; on mTOR, 3990 nM. Besides, the IC50 on PI 3-kinase gamma [2] amounted to 42 nM; in [3] it was 7080 nM; on PI 3-kinase delta, 40 nM. The “Assay M RLM CI(int)” value in [4] is 137 µL/min/mg.

For `Cc1ccc(S(=O)(=O)NCC(=O)C(C)(C)C)cc1-c1cnc(N)c(-n2cncn2)n1` [Example 36, 3-(5-Amino-6-[1,2,4]triazol-1-yl-pyrazin-2-yl)-N-(3,3-dimethyl-2-oxo-butyl)-4-methyl-benzenesulfonamide], the IC50 on PI 3-kinase alpha is 160 nM; on PI 3-kinase beta it was 850 nM; on Vps34 it was over 10000 nM; on PI 4-kinase beta, 8000 nM; on PI 3-kinase gamma [1], 17 nM; at mTOR, 250 nM. The figures for the IC50 (on PI 3-kinase gamma [2]; in series [3]; on PI 3-kinase delta) were 51 nM, 478 nM and 110 nM, respectively. Further, in [4], the “Assay M RLM CI(int)” value is 710 µL/min/mg.

Turning to `Cc1cc(C)n(-c2nc(-c3cc(S(=O)(=O)NCC(C)(C)O)ccc3C)cnc2N)n1` [Example 48, 3-(5-Amino-6-(3,5-dimethyl-1H-pyrazol-1-yl)pyrazin-2-yl)-N-(2-hydroxy-2-methylpropyl)-4-methyl benzenesulfonamide], the IC50 on PI 3-kinase alpha is 2600 nM; at PI 3-kinase beta, 7300 nM; at Vps34, over 10000 nM; on PI 4-kinase beta it was over 10000 nM; at PI 3-kinase gamma [1], 81 nM; on mTOR it was over 10000 nM. The IC50 at PI 3-kinase gamma [2] is 487 nM; in series [3], 1530 nM; at PI 3-kinase delta, 920 nM. Moreover, in series [4], the “Assay M RLM CI(int)” value was found to be 59 µL/min/mg.

In the case of `Cc1csc(-c2nc(-c3cc(S(=O)(=O)NCC(C)(C)O)ccc3C)cnc2N)n1` [Example 80, 3-(5-Amino-6-(4-methylthiazol-2-yl)pyrazin-2-yl)-N-(2-hydroxy-2-methylpropyl)-4-methylbenzenesulfonamide], the IC50 at PI 3-kinase alpha was 250 nM; on PI 3-kinase beta, 1700 nM; on Vps34 it was over 10000 nM; at PI 4-kinase beta it was 4550 nM; on PI 3-kinase gamma [1], 77 nM; on mTOR, over 10000 nM. For the same compound, the IC50 at PI 3-kinase gamma [2] worked out at 98 nM; in series [3] it was 2880 nM; on PI 3-kinase delta, 400 nM. In addition, the “Assay M RLM CI(int)” value in [4] turned out to be 106 µL/min/mg.

Turning to `Cc1ccc(S(=O)(=O)NCC2(O)CC2)cc1-c1cnc(N)c(-n2cncn2)n1` [Example 28, 3-(5-Amino-6-[1,2,4]triazol-1-yl-pyrazin-2-yl)-N-(1-hydroxy-cyclopropylmethyl)-4-methyl-benzenesulfonamide], the IC50 at PI 3-kinase alpha was 680 nM; on PI 3-kinase beta it was 4300 nM; at Vps34, over 9100 nM; at PI 4-kinase beta, 8900 nM; at PI 3-kinase gamma [1] it was 26 nM; on mTOR, over 9100 nM. The half-maximal inhibitory concentration (IC50) was found to be 280 nM on PI 3-kinase gamma [2], 759 nM in [3] and 560 nM on PI 3-kinase delta. Further, in series [4], the “Assay M RLM CI(int)” value was determined as 34 µL/min/mg.

On to `Cc1ccc(S(=O)(=O)NCC2CCCOC2)cc1-c1cnc(N)c(-n2cncn2)n1` (centres unmarked) [Example 127.19], for which the IC50 on PI 3-kinase alpha was 260 nM; at PI 3-kinase beta, 1300 nM; at Vps34, over 10000 nM; at PI 4-kinase beta it was 3900 nM; on PI 3-kinase gamma [1], 61 nM; at mTOR, over 10000 nM. Besides, the IC50 on PI 3-kinase gamma [2] was 153 nM; in series [3], 1620 nM; on PI 3-kinase delta, 620 nM.

Regarding `Cc1ccc(S(=O)(=O)NCCC(C)(C)O)cc1-c1cnc(N)c(-c2ccc(CO)s2)n1` [Example 119.35], the IC50 at PI 3-kinase alpha was 80 nM; on PI 3-kinase beta, 940 nM; at Vps34, over 9100 nM; on PI 4-kinase beta it was 740 nM; at PI 3-kinase gamma [1] it was 13 nM; at mTOR it was 3900 nM. The IC50 came out at 18 nM at PI 3-kinase gamma [2], 1020 nM in series [3] and 70 nM at PI 3-kinase delta. Also, the “Assay M RLM CI(int)” value in series [4] was found to be 78 µL/min/mg.

As to `Cc1ccc(S(=O)(=O)NCC(C)(C)O)cc1-c1cnc(N)c(-c2nc(C3CC3)no2)n1` [Example 95, 3-(5-Amino-6-(3-cyclopropyl-1,2,4-oxadiazol-5-yl)pyrazin-2-yl)-N-(2-hydroxy-2-methylpropyl)-4-methylbenzenesulfonamide], the IC50 is 900 nM at PI 3-kinase alpha; 4100 nM at PI 3-kinase beta; over 9550 nM at Vps34; over 9550 nM on PI 4-kinase beta; 36 nM at PI 3-kinase gamma [1]; 7400 nM on mTOR. Further, the IC50 at PI 3-kinase gamma [2] was found to be 262 nM; in series [3], 1590 nM; at PI 3-kinase delta, 730 nM. Besides, in series [4], the “Assay M RLM CI(int)” value stood at 53 µL/min/mg.

In the case of `Cc1ccc(S(=O)(=O)NCCC(C)(C)O)cc1-c1cnc(N)c(-c2cc[nH]n2)n1` [Example 119.42], the IC50 is 710 nM at PI 3-kinase alpha; 2340 nM at PI 3-kinase beta; over 9100 nM at Vps34; 880 nM on PI 4-kinase beta; 69 nM on PI 3-kinase gamma [1]; over 9100 nM at mTOR. The IC50 on PI 3-kinase gamma [2] came to 200 nM; in series [3] it was 2240 nM; on PI 3-kinase delta, 360 nM. Moreover, the “Assay M RLM CI(int)” value in [4] came to 41 µL/min/mg.

Take `Cc1ccc(S(=O)(=O)NCC(C)(C)CO)cc1-c1cnc(N)c(-c2cc(C3CC3)no2)n1` [Example 99, 3-(5-Amino-6-(3-cyclopropylisoxazol-5-yl)pyrazin-2-yl)-N-(3-hydroxy-2,2-dimethylpropyl)-4-methylbenzenesulfonamide]: the IC50 is 740 nM on PI 3-kinase alpha; 1650 nM at PI 3-kinase beta; 2950 nM on Vps34; 2700 nM at PI 4-kinase beta; 14 nM on PI 3-kinase gamma [1]; 4950 nM at mTOR. The IC50 at PI 3-kinase gamma [2] was found to be 59 nM; in [3], 3520 nM; on PI 3-kinase delta it was 140 nM. Moreover, the “Assay M RLM CI(int)” value in [4] amounted to 74 µL/min/mg.

As to `Cc1ccc(S(=O)(=O)NCC(C)(C)O)cc1-c1cnc(N)c(-c2cc(C3CC3)no2)n1` [Example 79, 3-(5-Amino-6-(3-cyclopropylisoxazol-5-yl)pyrazin-2-yl)-N-(2-hydroxy-2-methylpropyl)-4-methylbenzenesulfonamide], the IC50 came out at 280 nM on PI 3-kinase alpha; 1200 nM at PI 3-kinase beta; 7600 nM at Vps34; 3900 nM on PI 4-kinase beta; 22 nM at PI 3-kinase gamma [1]; 6500 nM on mTOR. Moreover, the IC50 at PI 3-kinase gamma [2] was 53 nM; in [3] it was 3210 nM; at PI 3-kinase delta, 370 nM. Besides, the “Assay M RLM CI(int)” value in series [4] turned out to be 63 µL/min/mg.

Consider `Cc1ccc(S(=O)(=O)NC[C@H]2CCCO2)cc1-c1cnc(N)c(-n2cncn2)n1` [Example 127.14], for which the IC50 on PI 3-kinase alpha is 920 nM; at PI 3-kinase beta it was 2600 nM; on Vps34, over 10000 nM; on PI 4-kinase beta, 8450 nM; at PI 3-kinase gamma [1], 69 nM; at mTOR, 9000 nM. The IC50 at PI 3-kinase gamma [2] came to 645 nM; in series [3], 1790 nM; at PI 3-kinase delta, 900 nM.

Consider `Cc1ccc(S(=O)(=O)NCC2(O)COC2)cc1-c1cnc(N)c(-n2cncn2)n1` [Example 127.47], for which the concentration for half-maximal inhibition (IC50) on PI 3-kinase alpha was 1100 nM; at PI 3-kinase beta it was 2200 nM; on Vps34 it was over 10000 nM; at PI 4-kinase beta, 6600 nM; at PI 3-kinase gamma [1], 60 nM; at mTOR, over 10000 nM. The results for the IC50 (on PI 3-kinase gamma [2]; in series [3]; on PI 3-kinase delta) were 266 nM, 2180 nM and 3200 nM, respectively.

As for `Cc1ccc(S(=O)(=O)NCCC(C)(C)O)cc1-c1cnc(N)c(-c2ccnn2C)n1` [Example 77, 3-(5-Amino-6-(1-methyl-1H-pyrazol-5-yl)pyrazin-2-yl)-N-(3-hydroxy-3-methylbutyl)-4-methylbenzenesulfonamide], the IC50 on PI 3-kinase alpha is 230 nM; at PI 3-kinase beta, 4200 nM; at Vps34 it was over 9100 nM; on PI 4-kinase beta, over 9100 nM; at PI 3-kinase gamma [1], 34 nM; on mTOR, 5470 nM. The IC50 on PI 3-kinase gamma [2] came to 134 nM; in series [3], 881 nM; at PI 3-kinase delta it was 300 nM. For the same compound, in series [4], the “Assay M RLM CI(int)” value was determined as 45 µL/min/mg.

`Cc1ccc(S(=O)(=O)NCCC(C)(C)O)cc1-c1cnc(N)c(-c2ccc(C3CC3)s2)n1` [Example 119.46]: the IC50 at PI 3-kinase alpha is 250 nM; at Vps34, over 9100 nM; on PI 4-kinase beta it was 610 nM; on PI 3-kinase gamma [1], 110 nM; at mTOR it was 6700 nM; on PI 3-kinase gamma [2], 81 nM. In addition, the IC50 was found to be 9190 nM in [3] and 70 nM on PI 3-kinase delta. Also, in series [4], the “Assay M RLM CI(int)” value was 122 µL/min/mg.
